Measurements from PMC6556873, “Rapid Covalent-Probe Discovery by Electrophile-Fragment Screening” (Journal of the American Chemical Society, 2019).
Read-outs that look alike come from different tables or passages of the source.

Key:
PCAF = target: T1, PCAF (Homo sapiens, UniProt Q92831); design: Intact protein LC/MS covalent labelling, fragments in pools of five, 200 uM each, 4 °C; conditions: 24 h, 4 °C, pool of five; 200 µM; covalent
T1 construct: gene KAT2B

OTUB2 (OTUB2A) = target: T2, OTUB2 (OTUB2A) (Homo sapiens, UniProt Q96DC9); design: Intact protein LC/MS covalent labelling, fragments in pools of five, 200 uM each, 4 °C; conditions: 24 h, 4 °C, pool of five; 200 µM; covalent
T2 construct: full length residues 1-234, E. coli BL21(DE3)-R3, His tag removed by TEV, construct 27312 Da
T2 sequence (Q96DC9 1-234): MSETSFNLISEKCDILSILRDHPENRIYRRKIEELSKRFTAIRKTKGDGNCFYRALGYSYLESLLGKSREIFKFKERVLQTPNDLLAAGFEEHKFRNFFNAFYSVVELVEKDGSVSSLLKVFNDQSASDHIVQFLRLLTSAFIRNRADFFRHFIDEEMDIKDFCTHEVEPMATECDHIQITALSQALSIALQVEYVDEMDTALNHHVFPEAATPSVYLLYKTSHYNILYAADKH

NUDT7 = target: T3, NUDT7 (Homo sapiens, UniProt P0C024); design: Intact protein LC/MS covalent labelling, fragments in pools of five, 200 uM each, 4 °C; conditions: 24 h, 4 °C, pool of five; 200 µM; covalent
T3 construct: residues 14-235, E. coli, pNIC28-Bsa4, N-terminal His6 tag removed by TEV, construct 26672 Da
T3 sequence (P0C024 14-235): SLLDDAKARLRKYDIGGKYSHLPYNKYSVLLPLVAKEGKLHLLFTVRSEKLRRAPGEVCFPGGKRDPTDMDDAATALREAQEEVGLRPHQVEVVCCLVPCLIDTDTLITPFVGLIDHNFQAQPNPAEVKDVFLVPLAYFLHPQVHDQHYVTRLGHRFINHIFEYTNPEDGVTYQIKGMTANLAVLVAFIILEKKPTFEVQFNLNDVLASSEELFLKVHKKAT

BSA = target: T4, BSA (Bos taurus, UniProt P02769); design: Intact protein LC/MS covalent labelling, fragments in pools of five, 200 uM each, 4 °C; conditions: 24 h, 4 °C, pool of five; 200 µM; covalent
T4 construct: gene ALB
T4 sequence (P02769 whole entry, the tested form may be a part): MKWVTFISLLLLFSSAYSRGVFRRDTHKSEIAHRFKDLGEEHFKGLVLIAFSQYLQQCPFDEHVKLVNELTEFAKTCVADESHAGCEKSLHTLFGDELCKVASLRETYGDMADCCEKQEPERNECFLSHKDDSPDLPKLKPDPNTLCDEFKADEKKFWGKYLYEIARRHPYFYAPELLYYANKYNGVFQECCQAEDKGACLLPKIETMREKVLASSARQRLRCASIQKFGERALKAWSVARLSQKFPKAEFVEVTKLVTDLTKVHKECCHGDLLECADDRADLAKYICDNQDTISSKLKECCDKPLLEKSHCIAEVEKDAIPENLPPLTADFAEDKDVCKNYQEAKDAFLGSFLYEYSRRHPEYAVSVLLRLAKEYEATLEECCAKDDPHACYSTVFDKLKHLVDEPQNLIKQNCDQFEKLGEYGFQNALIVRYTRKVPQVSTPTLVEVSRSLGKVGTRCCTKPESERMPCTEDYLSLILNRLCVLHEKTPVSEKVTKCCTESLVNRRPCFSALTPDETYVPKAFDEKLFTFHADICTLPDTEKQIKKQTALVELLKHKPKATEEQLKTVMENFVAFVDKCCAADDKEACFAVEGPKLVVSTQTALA

NNMT (hNNMT) = target: T5, NNMT (hNNMT) (Homo sapiens, UniProt P40261); design: Intact protein LC/MS covalent labelling, fragments in pools of five, 200 uM each, 4 °C; conditions: 24 h, 4 °C, pool of five; 200 µM; covalent
T5 construct: wild type, N-terminal His6 tag kept (no cleavage described), E. coli, construct 31248 Da
T5 sequence (P40261 1-264): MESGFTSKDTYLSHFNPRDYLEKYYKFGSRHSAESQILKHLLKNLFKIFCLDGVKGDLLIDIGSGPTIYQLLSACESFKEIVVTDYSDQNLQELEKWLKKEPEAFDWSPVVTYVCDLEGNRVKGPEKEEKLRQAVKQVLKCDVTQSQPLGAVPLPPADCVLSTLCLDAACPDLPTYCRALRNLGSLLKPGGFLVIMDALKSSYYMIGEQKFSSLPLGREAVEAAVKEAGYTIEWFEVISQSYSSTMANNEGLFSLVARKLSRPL

in vitro [1] = assay: in vitro; design: species or system HB2, HEK293; conditions: human, ccd841 cells
in vitro [2] = assay: in vitro; design: species or system CCD841, HEK293; conditions: human, hb2 cells, read-out: HB-2 Cells Viability (%)
in vitro [3] = assay: in vitro; design: species or system HB2, CCD841; conditions: human, hek293 cells

T1 sequence (Q92831 whole entry, the tested form may be a part): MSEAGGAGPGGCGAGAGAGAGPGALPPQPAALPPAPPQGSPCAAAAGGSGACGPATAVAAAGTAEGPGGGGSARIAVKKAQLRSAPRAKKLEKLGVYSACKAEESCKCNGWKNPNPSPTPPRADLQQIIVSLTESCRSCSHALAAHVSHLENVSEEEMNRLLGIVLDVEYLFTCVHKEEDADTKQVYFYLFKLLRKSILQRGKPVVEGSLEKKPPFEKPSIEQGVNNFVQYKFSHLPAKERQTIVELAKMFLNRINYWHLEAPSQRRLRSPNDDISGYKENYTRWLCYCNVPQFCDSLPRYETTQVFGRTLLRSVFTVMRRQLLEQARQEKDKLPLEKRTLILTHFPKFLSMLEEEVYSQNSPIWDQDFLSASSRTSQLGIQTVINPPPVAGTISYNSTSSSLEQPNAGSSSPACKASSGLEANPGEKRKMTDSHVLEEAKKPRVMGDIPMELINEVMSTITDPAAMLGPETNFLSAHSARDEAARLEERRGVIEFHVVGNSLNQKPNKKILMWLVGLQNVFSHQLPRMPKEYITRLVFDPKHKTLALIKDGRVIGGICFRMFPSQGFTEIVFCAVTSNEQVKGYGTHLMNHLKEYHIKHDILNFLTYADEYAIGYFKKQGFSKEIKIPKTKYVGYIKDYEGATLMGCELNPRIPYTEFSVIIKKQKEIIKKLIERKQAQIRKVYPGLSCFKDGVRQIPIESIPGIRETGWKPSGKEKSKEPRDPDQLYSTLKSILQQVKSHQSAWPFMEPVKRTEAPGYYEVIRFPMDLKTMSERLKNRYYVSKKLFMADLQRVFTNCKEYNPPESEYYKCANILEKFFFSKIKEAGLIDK

Compound | PCAF (PCAF) | OTUB2 (OTUB2 (OTUB2A)) | NUDT7 (NUDT7) | BSA (BSA) | NNMT (NNMT (hNNMT)) | viability at 48 h, 10 µM (in vitro [1]) | viability at 48 h, 10 µM (in vitro [2]) | viability at 48 h, 10 µM (in vitro [3])
C=CC(=O)N1CCN(C(=O)Nc2ccc(C)c(Cl)c2)CC1 [PCM-0102604] | 0 | 0 | 0 | 0 | 0 | 122% | 74.6% | 91.5%
C=CC(=O)N1CCn2nc(C)nc2C1 [PCM-0102605] | 0 | 0 | 0 | 0 | 0 | 104% | 102% | 88.4%
C=CC(=O)NC1(C(N)=O)CCCOC1 (centres unmarked) [PCM-0102608] | 0 | 0 | 0 | 0 | 0 | 107% | 107% | 118%
C=CC(=O)N1CCCCC1c1ccc(C(=O)NC)n1C (centres unmarked) [PCM-0102610] | 0 | 0 | 0 | 0 | 0.14 | 112% | 106% | 99.3%
C=CC(=O)N1CC(C)(C)C1c1cccs1 (centres unmarked) [PCM-0102611] | 0 | 0 | 0 | 0 | 0 | 95.8% | 107% | 71.3%
C=CC(=O)N1CCC(C(=O)[O-])CC1.[Na+] [PCM-0102613] | 0 | 0 | 0 | 0 | 0 | 125% | 98.2% | 114%
CC1CCCC(C)N1C(=O)CCl (centres unmarked) [PCM-0102616] | 0 | 0 | 0 | 0 | 0.2 | 88.1% | 71% | 57.9%
C=CC(=O)N1CCC(NC(=O)OC(C)(C)C)CC1 [PCM-0102617] | 0 | 0 | 0 | 0 | 0.16 | 105% | 104% | 94.2%
CCc1cccc(C)c1NC(=O)CCl [PCM-0102618] | 0 | 0 | 0.11 | 0 | 0 | 106% | 98.3% | 101%
Cc1ccc(NC(=O)NC(=O)CCl)cc1 [PCM-0102623] | 0 | 0 | 0.11 | 0 | 0.71 | 82.5% | 69.1% | 80.6%
CC(C)C(C)(C#N)NC(=O)CCl (centres unmarked) [PCM-0102626] | 0 | 0 | 0 | 0 | 0 | 82.1% | 96.4% | 89.9%
CN(C)C(=O)CN(C)C(=O)CCl [PCM-0102632] | 0 | 0.14 | 0 | 0 | 0 | 114% | 102% | 89.7%
C=CC(=O)NC1(c2nnc3n2CCCC3)CCC1 [PCM-0102639] | 0 | 0 | 0 | 0 | 0 | 131% | 101% | 123%
